Legend:
[1] = clinical use; cited from earlier work
[2] = Cytotoxicity in uninfected MT-4 cells (MTT assay); format: cell-based; conditions: human, concentration that reduces normal uninfected MT-4 cell viability by 50%

Row | Structure (SMILES) | melting point | further results
1 | N#Cc1ccc(Nc2nc(Oc3ccc(-c4ccc(C#N)c(Cl)c4)cc3)c3sccc3n2)cc1 [Example 4] | 246.3 to 247.7 °C | 
2 | Cc1cc(C#N)cc(C)c1Oc1nc(Nc2ccc(C#N)cc2)nc(N)c1Br [ETR, Etravirine] |  | response rate [1]: 36.5%; CC50 at 7 d ([2]; uninfected MT-4 cells): > 4.61 µM
3 | Cc1ccnc2c1NC(=O)c1cccnc1N2C1CC1 [NVP, Nevirapine] |  | CC50 at 7 d ([2]; uninfected MT-4 cells): > 15 µM
4 | N#Cc1ccc(Nc2nc(Oc3ccc(-c4ccc(C#N)cc4F)cc3F)c3sccc3n2)cc1 [Example 7] | 295.3 to 297 °C | 
5 | Cc1cc(C#N)ccc1-c1ccc(Oc2nc(Nc3ccc(C#N)cc3)nc3ccsc23)cc1 [Example 5] | 278.4 to 279.5 °C | 
6 | Cc1cc(-c2ccc(C#N)c(F)c2)ccc1Oc1nc(Nc2ccc(C#N)cc2)nc2ccsc12 [Example 10] | 299.3 to 300.2 °C | 
7 | N#Cc1ccc(Nc2nc(Oc3ccc(-c4ccc(C#N)c(F)c4)cc3F)c3sccc3n2)cc1 [Example 8] | > 300 °C | 
8 | O=C1Nc2ccc(Cl)cc2[C@@](C#CC2CC2)(C(F)(F)F)O1 [EFV, Efavirenz] |  | CC50 at 7 d [2]: > 6.34 µM
9 | Cc1cc(-c2ccc(C#N)cc2F)ccc1Oc1nc(Nc2ccc(C#N)cc2)nc2ccsc12 [Example 9] | 268.5 to 271 °C | 
10 | N#Cc1ccc(Nc2nc(Oc3ccc(-c4ccc(C#N)c(F)c4)cc3)c3sccc3n2)cc1 [Example 2] | 258.8 to 260.3 °C | 
11 | N#Cc1ccc(Nc2nc(Oc3ccc(-c4ccc(C#N)cc4F)cc3)c3sccc3n2)cc1 [Example 1] | 272.5 to 273.6 °C | 
12 | N#Cc1ccc(Nc2nc(Oc3ccc(-c4ccc(C#N)cc4Cl)cc3)c3sccc3n2)cc1 [Example 3] | > 300 °C | 

Second part, led by results:

Row | melting point | Structure (SMILES) | further results
13 | 275.2 to 276.8 °C | Cc1cc(C#N)ccc1-c1ccc(Oc2nc(Nc3ccc(C#N)cc3)nc3ccsc23)c(F)c1 [Example 13] | 
14 | 264.9 to 266.2 °C | Cc1cc(-c2ccc(Oc3nc(Nc4ccc(C#N)cc4)nc4ccsc34)cc2C)ccc1C#N [Example 18] | 
15 | 274.3 to 275.8 °C | Cc1cc(C#N)ccc1-c1ccc(Oc2nc(Nc3ccc(C#N)cc3)nc3ccsc23)cc1C [Example 17] | 
16 | 262.4 to 263.7 °C | Cc1cc(-c2ccc(C#N)cc2C)ccc1Oc1nc(Nc2ccc(C#N)cc2)nc2ccsc12 [Example 15] | 
17 | 252.5 to 254.2 °C | Cc1cc(-c2ccc(Oc3nc(Nc4ccc(C#N)cc4)nc4ccsc34)c(F)c2)ccc1C#N [Example 14] | 
18 | 256.5 to 257.9 °C | Cc1cc(-c2ccc(Oc3nc(Nc4ccc(C#N)cc4)nc4ccsc34)cc2)ccc1C#N [Example 6] | 
19 | 259.4 to 261.1 °C | Cc1cc(-c2ccc(Oc3nc(Nc4ccc(C#N)cc4)nc4ccsc34)c(C)c2)ccc1C#N [Example 16] | 
